Patent publication US6663865B1, “Tumor necrosis factor antagonists and their use in endometriosis” (Applied Research Systems ARS Holding N.V., priority 1999, dated 2003)

What was measured:
endometriotic-like foci = test: Experimental model of endometriosis in the rat (size of engraftments); format: in vivo; conditions: for Mean ± SEM Post-treatment values (engraftment surface area): s.c., soluble TNF-RI 10 mg/kg, Antide 2 mg/kg; for Mean ± SEM Pre-treatment values (engraftment surface area): baseline at pre-treatment laparatomy
Procedure: Experimental model of endometriosis in the rat. To explore the effects of the recombinant soluble TNF-RI in endometriosis, a previously described experimental model (Jones, 1987) was used with minor modifications. Under Inoketam/Rompun anaesthesia, an autologous fragment of endometrial tissue (1 cm in length) was resected from the right uterine horn and placed in PBS at 37° C. The uterine segment was opened by a longitudinal incision, and a 5×5 mm section was transplanted, without removing the myometrium, onto the inner surface of the abdominal wall using non-absorbable silk suture at four comers.
Exploration of the study drugs effects in the experimental model of endometriosis. […] One further group of rats, not undergoing any surgical procedure, was kept as a normal control group. Three weeks after the induction of endometriosis, the animals underwent a second laparatomy (pre-treatment laparatomy) to evaluate the size and viability of the ectopic endometrial tissue. The surface area (length×width) was measured using a calliper and recorded. The animals showing viable engraftments were assigned to the designated treatment groups as reported in Table I, so that at the end of the experiment, six animals/group for the first sacrifice time-point and five animals/group for the second sacrifice time-point were obtained. The treatments were started after a 1-week recovery period. The control groups received saline alone; another group received three subcutaneous injections of 2 mg/kg Antide every 3 days with a regimen previously shown to suppress ovarian and hypothalamic activity (Sharpe et al., 1990). A further group received 10 mg/kg recombinant soluble TNF-RI, divided into two daily doses over a 1-week period.
(§1) At the designated sacrifice time-points (2 and 9 days after the last treatment i.e. 36 and 43 days after surgical engraftment), the animals were anaesthetised; blood samples were collected from abdominal aorta, sera were separated and stored at −20° C. until analyzed for estradiol-17β level determination. Spleens were excised for measurement of the Natural Killer (NK) activity. The surface area of endometriosis-like foci were measured at each sacrifice time-point in order to normalize data, the percent variation versus the pre-treatment laparatomy value was calculated by the formula: [formula]
where X0 is the size at time of pre-treatment laparatomy and X is the size at the time of sacrifice. The mean value of percent variation in each group was then computed.

[1] = Serum estradiol-17β determination by radioimmunoassay in rats with experimental endometriosis; format: in vivo, rat; conditions: second observation time-point (9 days after last treatment)
Procedure: as §1
Estradiol-17β determination. Serum estradiol-17β concentrations were determined using a commercially available kit to quantify estradiol in serum with no extraction step (DPC, Los Angeles, Calif., USA). Briefly, ^125I-labeled estradiol competes with estradiol in the serum sample for antibody sites. After incubation, separation of bound from free was achieved by decanting. The tube was then counted in a gamma counter (LKB-Pharmacia Wallak), the counts being inversely related to the amount of estradiol present in the serum sample. The quantity of estradiol in the samples was determined by comparing the counts to a calibration curve. […] Samples from the same experimental session were analyzed in a single immunoassay.

endometriosis = conditions: cited from earlier work

In the case of Antide, the “size reduction of the endometriotic-like foci compared to the original dimension” value (endometriotic-like foci; 2 days after last treatment (first sacrifice time-point)) is reported as 94%, the “Mean ± SEM Post-treatment values (engraftment surface area)” value (endometriotic-like foci; 2 days after last treatment) is reported as 0.08 ± 0.02 cm^2 and the “size reduction of the endometriotic-like foci compared to the original dimension” value (endometriotic-like foci; 9 days after last treatment (second sacrifice time-point)) is reported as 88%. For the same compound, the “Mean ± SEM Post-treatment values (engraftment surface area)” value (endometriotic-like foci; 9 days after last treatment) was 0.19 ± 0.09 cm^2, the “Mean ± SEM Pre-treatment values (engraftment surface area)” value (endometriotic-like foci; group observed 2 days after last treatment) was 1.43 ± 0.34 cm^2 and the “Mean ± SEM Pre-treatment values (engraftment surface area)” value (endometriotic-like foci; group observed 9 days after last treatment) was 1.41 ± 0.32 cm^2. The “serum estradiol-17β concentration compared to untreated controls” value [1] was “significant difference”.

For `C#C[C@]1(O)CC[C@H]2[C@@H]3CCC4=Cc5oncc5C[C@]4(C)[C@H]3CC[C@@]21C` [Danazol], the crude recurrence rates (endometriosis; after up to 4 years) is given as 40%-50%, the “patients suffering from pain with improved symptoms” value (endometriosis; endometriosis patients) is given as 66-100% and the “patients abandoning therapy because of weight gain and androgenic side effects” value (endometriosis; human, in vivo) is given as “up to 80%”.
